Assay results reported in patent US8431593B2, “Heteroaryl amide derivatives” (H. Lundbeck A/S, priority 2006, dated 2013).

What follows are compounds tested against T1, P2X7 receptor (Homo sapiens, UniProt Q99572) (assay: P2X7 calcium mobilization assay, high throughput, antagonist activity (Example 4A)). Conditions: not given.
T1 construct: host or cells: SH-SY5Y
T1 sequence (Q99572 1-595): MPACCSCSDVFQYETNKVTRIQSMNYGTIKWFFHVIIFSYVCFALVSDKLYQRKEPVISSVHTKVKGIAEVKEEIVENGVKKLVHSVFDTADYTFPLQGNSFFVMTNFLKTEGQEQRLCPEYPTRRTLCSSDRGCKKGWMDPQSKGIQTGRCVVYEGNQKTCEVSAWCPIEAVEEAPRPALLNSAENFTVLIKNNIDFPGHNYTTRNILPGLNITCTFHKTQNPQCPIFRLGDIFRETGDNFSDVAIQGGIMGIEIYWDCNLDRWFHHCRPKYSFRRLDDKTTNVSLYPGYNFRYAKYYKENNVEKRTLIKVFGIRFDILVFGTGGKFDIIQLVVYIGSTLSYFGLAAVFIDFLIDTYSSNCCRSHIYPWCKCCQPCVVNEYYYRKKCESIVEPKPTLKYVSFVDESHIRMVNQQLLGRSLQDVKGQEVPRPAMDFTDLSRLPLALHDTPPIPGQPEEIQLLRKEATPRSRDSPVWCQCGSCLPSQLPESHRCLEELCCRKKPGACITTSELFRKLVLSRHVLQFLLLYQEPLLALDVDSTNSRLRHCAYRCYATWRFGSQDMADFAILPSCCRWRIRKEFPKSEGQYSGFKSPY
Type: cell-based
Description: One day prior to the experiment, cells are plated at a density of 100,000 cells/well in a 96 well black/clear TC plate (Corning® Costar®, Sigma-Aldrich Co., St. Louis, Mo.). […] After one hour dye incubation, wells are rinsed once with 50 μL assay solution, and are then incubated for an hour at room temperature with 100 μL assay solution containing the test compound. […] After the one hour incubation, plates are transferred to a FLIPR^TETRA instrument (Molecular Devices, Sunnyvale, Calif.) for calcium mobilization analysis.
First, the average maximum relative fluorescent unit (RFU) response from the negative control wells (no agonist) is subtracted from the maximum response detected for each of the other experimental wells. Second, average maximum RFU response is calculated for the positive control wells (agonist wells).
In the case of `O=C(NCCO)c1cn2c(C(=O)NCC34CC5CC(CC(C5)C3)C4)cccc2n1` [Compound 8, 5-N-(adamantan-1-ylmethyl)--(2-hydroxyethyl)imi-dazo[1,2-a]pyridine-2,5-dicarboxamide], the IC50 is reported as under 2000 nM.

Same assay, conditions: 50% decrease in the fluorescence response of cells exposed to 80 μM 2′(3′)-O-(4-benzoyl-benzoyl)adenosine 5′-triphosphate; Example 4A; read-out: IC50
`CN(C(=O)c1cn2c(C(=O)NCC34CC5CC(CC(C5)C3)C4)cccc2n1)C1CCNCC1` [Compound 606, 5-N-(adamantan-1-ylmethyl)-2-N-methyl-2-N-piperidin-4-ylimidazo[1,2-a]pyridine-2,5-dicarboxamide] gave an IC50 of under 2000 nM. Work on `CCN(CCO)Cc1cn2c(C(=O)NCC34CC5CC(CC(C5)C3)C4)cccc2n1` [Compound 553, N-(adamantan-1-ylmethyl)-2-{[ethyl(2-hydroxyethyl)amino]methyl}imidazo[1,2-a]pyridine-5-carboxamide] yielded an IC50 of under 2000 nM. Work on `CN(C)C(=O)c1cn2c(C(=O)NC[C@@H]3CC[C@H]4C[C@@H]3C4(C)C)cccc2n1` [Compound 470, 5-N-{[(1S,2R,5S)-6,6-dimethylbicyclo[3.1.1]hept-2-yl]methyl}-2-N,2-N-dimethylimidazo[1,2-a]pyridine-2,5-dicarboxamide] yielded an IC50 of under 2000 nM. `O=C(NCC12CC3CC(CC(C3)C1)C2)c1cccc2nc(C(=O)N3CCCNCC3)cn12` [Compound 608, N-(adamantan-1-ylmethyl)-2-(1,4-diazepan-1-ylcarbonyl)imidazo[1,2-a]pyridine-5-carboxamide] showed an IC50 of under 2000 nM.

Same assay, conditions: 50% decrease in the fluorescence response of cells exposed to 80 μM of 2′(3′)-O-(4-benzoyl-benzoyl)adenosine 5′-triphosphate; Example 4A; read-out: IC50
`O=C(NCC12CC3CC(CC(C3)C1)C2)c1cccc2nc(C(=O)N3CCC(N4CCCC4)C3)cn12` (stereo not shown) [Compound 719, N-(adamantan-1-ylmethyl)-2-(1,3′-bipyrrolidin-1′-ylcarbonyl)imidazo [1,2-a]pyridine-5-carboxamide] was tested, and the IC50 was under 2000 nM. `O=C(NCC12CC3CC(CC(C3)C1)C2)c1cccc2nc(C(=O)N3CCN(C4CCOCC4)CC3)cn12` [Compound 721, N-(adamantan-1-ylmethyl)-2-{[4-(tetrahydro-2H-pyran-4-yl)piperazin-1-yl]carbonyl}imidazo[1,2-a]pyridine-5-carboxamide] gave an IC50 of under 2000 nM. `CC1(C)C2CC[C@H](CNC(=O)c3cccc4nc(CC(=O)NCC(F)(F)F)cn34)C1C2` (stereo partly drawn) [Compound 793, N-{[(2S)-6,6-dimethylbicyclo [3.1.1]hept-2-yl]methyl}-2-{2-oxo-2-[(2,2,2-trifluoroethyl)amino]ethyl}imidazo [1,2-a]pyridine-5-carboxamide] gave an IC50 of under 2000 nM. `CCOC(=O)C(Cc1ccc(Cl)cc1)c1cn2c(C(=O)NCC34CC5CC(CC(C5)C3)C4)cccc2n1` (stereo not shown) [Compound 800, ethyl 2-{5-[(adamantan-1-ylmethyl)carbamoyl]imidazo[1,2-a]pyridin-2-yl}-3-(4-chlorophenyl) propanoate] was tested, and the IC50 was under 2000 nM. `NCC1CCCCN1C(=O)c1cn2c(C(=O)NCC34CC5CC(CC(C5)C3)C4)cccc2n1` (stereo not shown) [Compound 632, N-(adamantan-1-ylmethyl)-2-{[2-(aminomethyl)piperidin-1-yl]carbonyl}imidazo[1,2-a]pyridine-5-carboxamide] showed an IC50 of under 2000 nM. `CCOC(=O)C(Cc1cn2c(C(=O)NCC34CC5CC(CC(C5)C3)C4)cccc2n1)c1cccnc1` (stereo not shown) [Compound 759, ethyl 3-{5-[(adamantan-1-ylmethyl)carbamoyl]imidazo[1,2-a]pyridin-2-yl}-2-pyridin-3-ylpropanoate] showed an IC50 of under 2000 nM. In the case of `CN(C)[C@@H]1CCN(C(=O)CCc2cn3c(C(=O)NCC45CC6CC(CC(C6)C4)C5)cccc3n2)C1` [Compound 753, N-(adamantan-1-ylmethyl)-2-{3-[(3R)-3-(dimethylamino)pyrrolidin-1-yl]-3-oxopropyl}imidazo [1,2-a)pyridine-5-carboxamide], the IC50 is reported as under 2000 nM.

Same assay, conditions: 50% decrease in the fluorescence response of cells exposed to 80 μM of 2′(3′)-O-(4-benzoyl-benzoyl)adenosine 5′-triphosphate; determined as in Example 4A; read-out: IC50
In the case of `O=C(Cc1cn2c(C(=O)NCC34CC5CC(CC(C5)C3)C4)cccc2n1)N[C@@H]1CCCNC1` [Compound 838, N-(adamantan-1-ylmethyl)-2-{2-oxo-2-[(3R)-piperidin-3-ylamino]ethyl} imidazo[1,2-a] pyridine-5-carboxamide], the IC50 is reported as under 2000 nM. With `CC(C)CC(CNC(=O)c1cccc2nc(C3CCC(C(=O)O)CC3)cn12)c1ccc(Cl)cc1` (stereo not shown) [Compound 969, 4-(5-{[2-(4-chlorophenyl)-4-methylpentyl]carbamoyl}imidazo[1,2-a]pyridin-2-yl)cyclohexane-carboxylic acid] the IC50 was under 2000 nM. `COc1cccc(CC(C(=O)O)c2cn3c(C(=O)NCC45CC6CC(CC(C6)C4)C5)cccc3n2)c1` (stereo not shown) [Compound 843, 2-{5-[(adamantan-1-ylmethyl)carbamoyl]imidazo[1,2-a]pyridin-2-yl}-3-(3-methoxyphenyl) propanoic acid] gave an IC50 of under 2000 nM. `CC(C)CC(CNC(=O)c1cccc2nc(Cn3nnc(CCO)n3)cn12)c1ccc(Cl)cc1` (stereo not shown) [Compound 918, N-[2-(4-chlorophenyl)-4-methylpentyl]-2-{[5-(2-hydroxyethyl)-2H-tetrazol-2-yl]methyl}imidazo[1,2-a]pyridine-5-carboxamide] showed an IC50 of under 2000 nM.

Same assay, conditions: P2X7 calcium mobilization, Example 4A; 50% decrease in the fluorescence response of cells exposed to 80 μM of (2′(3′)-O-(4-benzoyl-benzoyl)adenosine 5′-triphosephate); read-out: IC50
Work on `O=C(NCC1(c2ccc(F)cc2)CCCCC1)c1cccc2nc(CN3CCCC3)cn12` [Compound 1045, N-{[1-(4-fluorophenyl)cyclohexyl]methyl}-2-(pyrrolidin-1-ylmethyl) imidazo[1,2-a]pyridine-5-carboxamide] yielded an IC50 of under 2000 nM.

Same assay, conditions: SH-SY5Y cells; 50% decrease in fluorescence response to 80 μM BzATP; read-out: IC50
`CC(C)C(=O)N[C@@H]1CCN(Cc2cn3c(C(=O)NCC45CC6CC(CC(C6)C4)C5)cccc3n2)C1` (stereo in doubt) [Compound 71, N-(adamantan-1-ylmethyl)-2-{[3-(isobutyryl-amino)pyrrolidin-1-yl]methyl}imidazo[1,2-a]pyridine-5-carboxamide] was tested, and the IC50 was under 2000 nM. `CC(O)CCNC(=O)c1cn2c(C(=O)NCC34CC5CC(CC(C5)C3)C4)cccc2n1` (stereo not shown) [Compound 84, 5-N-(adamantan-1-ylmethyl)--(3-hydroxy-butyl)imidazo[1,2-a]pyridine-2,5-dicarboxamide] was tested, and the IC50 was under 2000 nM. Compound `CCC(C)NC(=O)Cc1cn2c(C(=O)NCC34CC5CC(CC(C5)C3)C4)cccc2n1` (stereo not shown) [Compound 152, N-(adamantan-1-ylmethyl)-2-[2-(sec-butylamino)-2-oxoethyl]imidazo[1,2-a]pyridine-5-carboxamide] has an IC50 of under 2000 nM. In the case of `CCOC(=O)c1cn2c(NC(=O)CC34CC5CC(CC(C5)C3)C4)cccc2n1` [Compound 143, ethyl 5-[(adamantan-1-ylacetyl)amino]imidazo[1,2-a]pyridine-2-carboxylate], the IC50 is reported as under 2000 nM. `C[C@@H](O)CNC(=O)c1cn2c(C(=O)NCC34CC5CC(CC(C5)C3)C4)cccc2n1` [Compound 81, 5-N-(adamantan-1-ylmethyl)--[(2R)-2-hydroxy-propyl]imidazo[1,2-a]pyridine-2,5-dicarboxamide] showed an IC50 of under 2000 nM. `Cc1ccn(Cc2cn3c(C(=O)NCC45CC6CC(CC(C6)C4)C5)cccc3n2)n1` [Compound 210, N-(adamantan-1-ylmethyl)-2-[(3-methyl-1H-pyrazol-1-yl)methyl]imidazo[1,2-a]pyridine-5-carboxamide] gave an IC50 of under 2000 nM. `CC(=O)NCCc1cn2c(C(=O)NCC34CC5CC(CC(C5)C3)C4)cccc2n1` [Compound 202, 2-(2-acetamidoethyl)-N-(adamantan-1-ylmethyl)imidazo[1,2-a]pyridine-5-carboxamide] showed an IC50 of under 2000 nM.

Same assay, conditions: fluorescence response of cells exposed to 80 μM 2′(3′)-O-(4-benzoyl-benzoyl)adenosine 5′-triphosphate; Example 4A; read-out: IC50
In the case of `Cc1cc(-c2cn3c(C(=O)NCC45CC6CC(CC(C6)C4)C5)cccc3n2)n[nH]1` [Compound 284, N-(adamantan-1-ylmethyl)-2-(5-methyl-1H-pyrazol-3-yl)imidazo[1,2-a]pyridine-5-carboxamide], the IC50 is reported as under 2000 nM. Compound `CC(=O)CCc1cn2c(C(=O)NCC34CC5CC(CC(C5)C3)C4)cccc2n1` [Compound 353, N-(adamantan-1-ylmethyl)-2-(3-oxobutyl)imidazo[l ,2-a]pyridine-5-carboxamide] has an IC50 of under 2000 nM. `O=C(O)CCS(=O)(=O)Cc1cn2c(C(=O)NCC34CC5CC(CC(C5)C3)C4)cccc2n1` [Compound 346, 3-[({5-[(adamantan-1-ylmethyl)carbamoyl]imidazo[1,2-a]pyridin-2-yl}methyl)sulfonyl] propanoic acid] showed an IC50 of under 2000 nM. For `CC(=O)NC1CCN(C(=O)c2cn3c(NC(=O)CC45CC6CC(CC(C6)C4)C5)cccc3n2)CC1` [Compound 408, N-{2-[(4-acetamidopiperidin-1-yl)carbonyl]imidazo[1,2-a]pyridin-5-yl}-2-adamantan-1-ylacetamide], the IC50 was under 2000 nM.
